Measured values from patent publication US20130065818A1, “Arylamide Compounds And Compositions And Uses Thereof” (POLYMEDIX, priority 2006, published 2013).
Values after ≈ are worked out from the molar mass of the structure shown. “Also recorded” adds a separate entry of the source.

How the values were obtained:
[1] = test system: Fluoroquinolone-Resistant Methicillin-Resistant Staphylococcus aureus Strain K950; experiment: MIC characterization of strain K950; type: cell-based; details: read-out: MIC (Minimum Inhibitory Concentration)
[2] = test system: fluoroquinolone-resistant, methicillin-resistant Staphylococcus aureus (K950); experiment: NZW rabbit keratitis model, corneal colony counts; type: in vivo; details: for Statistical comparison of corneal colony counts (< = significantly fewer colony counts): drops every 15 min
Excerpt: (§1) One purpose of the following experiments was to compare the efficacy of 1% Oligomer 2, 0.5% Oligomer 2, and 5% vancomycin in the treatment of a fluoroquinolone-resistant, methicillin-resistant Staphylococcus aureus infection in the NZW rabbit keratitis model with or without intact corneal epithelia.
Nothing was done to the right eyes.
as §1, with “0.25%” for “1%”, “with and without 0.005% benzalkonium chloride,” for “0.5% Oligomer 2,”, “epithelia. The 0.005% benzalkonium chloride has been added to try to increase the penetration of 0.25% Oligomer 2 through the corneal epithelium.” for “epithelia.”
One purpose of the following experiments was to determine the efficacy of 0.25% Oligomer 4, with and without 200 μM Farnesol, and 200 μM Farnesol in the treatment of a fluoroquinolone-resistant and methicillin-resistant Staphylococcus aureus infection in the NZW rabbit keratitis model with or without intact corneal epithelia. The 200 μM Farnesol has been added to try to increase the efficacy and penetration of 0.25% Oligomer 4 through the corneal epithelium.

[3] = NZW rabbit keratitis model, clinical evaluation (Total Ocular Score); details: Oligomer 2 study, N 3
Protocol: Fifteen rabbits were received from Myrtles' Rabbitry, Thompson Station, TN. The clinical isolate of fluoroquinolone-resistant, methicillin-resistant (MRSA) Staphylococcus aureus (K950) was subcultured on 5% sheep blood agar and incubated at 37° C. in 6% CO2 overnight. The next morning, the MRSA strain was suspended in sterile trypticase soy broth to a 0.5 McFarland Standard, containing approximately 5×10^8 cfu/ml of bacteria. The absorbance of the suspension was measured at 650 nm using a Beckman DU-70 spectrophotometer. OD readings of 0.07 corresponded to 5×10^8 cfu/ml of bacteria. This concentration was appropriately diluted in sterile trypticase soy broth to provide the inoculum of approximately 1,000 (1.0×10^3) cfu/eye in 25 μl. Colony counts were performed on the inoculum to determine the actual cfu inoculated. Following general anesthesia with ketamine and xylazine and topical anesthesia with proparacaine and prior to bacterial inoculation in the left eyes, 6 mm areas of the corneal epithelia was removed centrally with an Amoils epithelial scrubber. Nothing was done to the right eyes. The 15 rabbits were then inoculated intrastromally in both eyes with 25 μl of the bacterial dilution of approximately 10^3 cfu/eye of the bacteria. The bacterial inoculation of the left eyes was directly under the epithelial defect created by the Amoils epithelial scrubber. The epithelia were removed in the left corneas in order to determine whether this layer of the cornea is a barrier for Oligomer 2 penetration when compared to the right cornea with an intact epithelium. A colony count was done on the inoculum to determine the actual cfu inoculated. The rabbits were immediately treated with analgesia in the form of and intramuscular injection of ketoprofen, 1.5 mg/kg. After 4 hours, the 15 rabbits were divided into 4 treatment groups and one untreated control group sacrificed at the onset of therapy. Both eyes of each rabbit of the treatment groups were treated with one 37 μl drop of the coded solutions or control Saline or 1 drop of vancomycin from its dropper bottle. The Oligomer 2 concentrations were masked and labeled as 1 and 2. The masked concentrations were 1% Oligomer 2 and 0.5% Oligomer 2 but the specific concentrations of solutions were not known to the lab workers who carried out the experiment. The vancomycin and control (Tris-Buffered Saline) were not masked.
Treatment was scheduled for every 15 minutes for 5 hours (21 total doses). However, PMX-1 and PMX-2 were exhausted after the 19th dose. Therefore, the actual treatment was 15 minutes for 4.5 hours (19 total doses). The 3 rabbits in group V were sacrificed 4 hours PI and large 9.5 mm buttons were removed from the corneas. These were placed in 1 ml of PBS and kept on ice. The corneal buttons were homogenized for 25 seconds on ice using the motorized homogenizer. After homogenization, colony counts were done on the homogenates using 5% sheep blood agar plates to determine the amount of bacteria contained in the corneas at the onset of therapy. Following the completion of therapy, the eyes were examined for clinical signs of infection. One hour after the final treatment, the treated rabbits (Groups I-IV) were sacrificed and large 9.5 mm buttons were removed from the corneas. These were placed in 1 ml of PBS and kept on ice. The corneal buttons were homogenized for 25 seconds on ice using the motorized homogenizer. After homogenization, colony counts were performed on the homogenates using 5% sheep blood agar plates to determine the amount of bacteria contained in the corneas after treatment. The next morning, the plates were counted and the number of cfu/eye of Staphylococcus aureus was determined for each cornea.
Fifteen rabbits were received from Myrtles' Rabbitry, Thompson Station, TN.

## CN[C@H](CC(C)C)C(=O)N[C@H]1C(=O)N[C@@H](CC(N)=O)C(=O)N[C@H]2C(=O)N[C@H]3C(=O)N[C@H](C(=O)N[C@H](C(=O)O)c4cc(O)cc(O)c4-c4cc3ccc4O)[C@H](O)c3ccc(c(Cl)c3)Oc3cc2cc(c3O[C@@H]2O[C@H](CO)[C@@H](O)[C@H](O)[C@H]2O[C@H]2C[C@](C)(N)[C@H](O)[C@H](C)O2)Oc2ccc(cc2Cl)[C@H]1O [Vancomycin, reference compound]
[1]
  MIC: 2 µg/mL (≈ 1.38 µM)
[2]; Ker-1 (Example 9), abraded (removed) epithelium, 19 doses
  Statistical comparison of corneal colony counts (< = significantly fewer colony counts): Vancomycin<Saline Control
[2]; Ker-1 (Example 9), intact epithelium, 19 doses
  Statistical comparison of corneal colony counts (< = significantly fewer colony counts): Vancomycin<Saline Control; also recorded: Vancomycin<PMX-1; also recorded: Vancomycin<PMX-2
[2]; Ker-2 (Example 10), abraded (removed) epithelium, 21 doses
  Statistical comparison of corneal colony counts (< = significantly fewer colony counts): Vancomycin<Saline Control
[2]; Ker-2 (Example 10), intact epithelium, 21 doses
  Statistical comparison of corneal colony counts (< = significantly fewer colony counts): Vancomycin<Saline Control; also recorded: Vancomycin<PMX-B
[2]; Log10 CFU/ml, < = significantly fewer colony counts
  Effect of Abraded Epithelium on colony counts (Intact vs. Abraded, two sample T-test): Abraded = Intact
[2]; Oligomer 2 study, two sample T-test, < = significantly fewer colony counts
  Effect of Abraded Epithelium on Effectiveness of Each Test Solution (colony counts, abraded vs. intact): Abraded = Intact
[3]; abraded epithelium
  Total Ocular Score, Median: 9.5
[3]; intact epithelium
  Total Ocular Score, Median: 9.5
